According to US20240316059A1, “PEPTIDE DRUG CONJUGATES” (Oncopeptides AB, priority 2021, published 2024):

Experiments:
THP-1 = assay: In vitro cytotoxicity, THP-1 (Acute Myeloid Leukemia); format: cell-based; conditions: Homo sapiens, THP-1, 72 h, read-out: Cytotoxicity IC50, THP-1
Method: (§1) All cells were cultivated in RPMI medium 1640 (IX). All media was supplemented with 10 μg/μl penicillin/streptomycin, 10% heat inactivated FBS, 0.1 mM Sodium Pyruvate, 1×MEM NEAA (ThermoFisher) and 1 mM HEPES. The DERL-2 cells had higher FBS (20%) and 40 ng/mL IL-2 was added. hPBMCs were thawed and allowed to acclimatise overnight and then stimulated with 10 μg/mL PHA-M and 40 ng/mL IL-2 for 4 hours before being exposed to test compounds. All cells, except for hPBMCs, were grown to reach log phase before being exposed to the test compounds.
(§2) Test compounds were dissolved in 100% DMSO and added to a 384 assay plate. Additional DMSO was added to maintain the same final DMSO concentration (0.2%) in all wells. 25 μL cell suspension with a concentration of 100000 cells/mL was added to each well. The cells were cultured in a CO2 incubator at 37° C. for 72 h. Plates were equilibrated to room temperature for 30 minutes before adding 20 μL CellTiter-Glo® 2.0 (Promega) reagent to all wells. The plate was then allowed to stabilize for 20 minutes before recording the luminescence (Em filter 700 nm) in an Envision plate reader.

AMO-1 = assay: In vitro cytotoxicity, AMO-1 (Multiple Myeloma); format: cell-based; conditions: Homo sapiens, AMO1, 72 h, read-out: Cytotoxicity IC50, AMO-1
Method: as §1, §2

OPM-2 = assay: In vitro cytotoxicity, OPM-2 (Multiple Myeloma); format: cell-based; conditions: Homo sapiens, OPM-2, 72 h, read-out: Cytotoxicity IC50, OPM-2
Method: as §1, §2

U266 = assay: In vitro cytotoxicity, U266 (Multiple Myeloma); format: cell-based; conditions: Homo sapiens, U-266, 72 h, read-out: Cytotoxicity IC50, U266
Method: as §1, §2

SU-DHL-8 = assay: In vitro cytotoxicity, SU-DHL-8 (B-cell non-Hodgkin Lymphoma); format: cell-based; conditions: Homo sapiens, SU-DHL-8, 72 h, read-out: Cytotoxicity IC50, SU-DHL-8
Method: as §1, §2

DERL-2 = assay: In vitro cytotoxicity, DERL-2 (T cell Lymphoma); format: cell-based; conditions: Homo sapiens, 72 h, read-out: Cytotoxicity IC50, DERL-2
Method: as §1, §2

[1] = In vitro cytotoxicity, human peripheral blood mononuclear cells; format: cell-based; conditions: CellTiter-Glo 2.0, stimulated with PHA-M and IL-2, read-out: Cytotoxicity IC50, hPBMC
Method: as §1, §2

MM.1S cells [2] = assay: Cellular retention/efflux: intracellular and extracellular concentrations by LC-MS/MS; format: in vitro ADME, human
Method: Methods: MMA1S cells at 2×10^6 cells/mL were seeded at 250 μL per well in a 96-well plate. Cells were incubated in the presence of a test compound for 5, 15, and 60 min before pelleting cells by centrifugation at +4° C. for 5 min. Cell media was immediately harvested to a second plate and stored at −80° C. until further analysis. Pelleted cells were washed once with ice cold PBS before storage at −80° C. until further analysis.
Cells were lysed and protein in the media were precipitated using acetonitrile dimethylformamide, 9:1 containing internal standard. Samples were centrifuged and the supernatant was analyzed with LC-MS/MS (ACQUITY UPLC-Xevo TQ-S micro) to determine compound concentration.
Example compound 1, bendamustine and melphalan were used as test compounds.
Method: Method described in Biological example 3.
Example compounds 1, 2, 3, 4, 6, 7 and 10 were investigated. Intracellular metabolites are formed from all compounds tested. The compound used for cell treatment was metabolised to the ester-hydrolysed compound (here called Metabolite A) and to the amide-hydrolysed compound (called Metabolite B). The example compound structures and the structures of the two metabolites for the respective compounds were as shown in Table 4. The Metabolites B formed under the conditions tested were compounds with structure as Examples 17 and 18: […]

MM.1S cells [3] = assay: DNA fragmentation, APO-BrdU TUNEL assay by flow cytometry; format: cell-based, human; conditions: 24 h; for Cells with DNA breaks (TUNEL positive cells): 0.6 μM; for Dose response effect on DNA damage (TUNEL): 0.006, 0.06, 0.6 or 6 μM
Method: Method: 1×10^6 MM.1S cells (CRL-2974, ATCC) were treated with Example compound 1 or Bendamustine at 0.006, 0.06, 0.6 or 6 μM for 24 h. After incubation, the cells were washed with PBS (10010-015, Gibco), fixed in Flow Cytometry Fixation Buffer (FC004, R&D Systems) for 10 min and stored in 70% ethanol at −20° C. overnight. The deoxythymidine analog (BrdUTP) was present in the experiment and served to label the DNA break sites. Next day, the cells were washed and stained using an APO-BrdU™ TUNEL Assay Kit, according to the manufacturer's protocol (A23210, Invitrogen), followed by the analysis using BD FACSCanto™ II. The percentage of TUNEL positive cells indicates the percentage of cells with fragmented DNA.

Compound `Cn1c(CCCC(=O)O)nc2cc(N(CCCl)CCCl)ccc21` [Bendamustine, bendamustine, reference compound] has an IC50 (THP-1) of 40.2 µM, an IC50 (AMO-1) of 57 µM and an IC50 (OPM-2) of 81.9 µM. It also gave an IC50 (U266) of 83 µM, an IC50 (SU-DHL-8) of 14.3 µM and an IC50 (DERL-2) of 21.1 µM. For the same compound, the IC50 at 72 h [1] was 15.8 µM, the “Intracellular concentration (in words)” value (MM.1S cells [2]; MM.1S cells incubated with test compound 5, 15, 60 min, metabolites measured after treatment with the parent Example compound) was “Low intracellular concentrations” and the “Extracellular concentration (in words)” value (MM.1S cells [2]; media of MM.1S cells incubated with test compound 5, 15, 60 min, metabolites measured after treatment with the parent Example compound) was “quite high and decreased overtime”. The “Cells with DNA breaks (TUNEL positive cells)” value (MM.1S cells [3]) was “that was not the case” and the “Dose response effect on DNA damage (TUNEL)” value (MM.1S cells [3]) was “no obvious effect”.

`CCOC(=O)[C@H](CC(C)C)NC(=O)[C@@H](N)CCc1nc2cc(N(CCCl)CCCl)ccc2n1C` [Example 1, Ethyl (2S)-2-[[(2S)-2-amino-4-[5-[bis(2-chloroethyl)amino]-1-methyl-benzimidazol-2-yl]butanoyl]amino]-4-methyl-pentanoate] showed an IC50 (THP-1) of 0.016 µM, an IC50 (AMO-1) of 0.0497 µM and an IC50 (OPM-2) of 0.173 µM. The IC50 (U266) was 0.0214 µM, the IC50 (SU-DHL-8) was 0.0199 µM and the IC50 (DERL-2) was 0.006 µM. For the same compound, the IC50 at 72 h [1] was 0.0054 µM, the “Intracellular hydrolysis / formation of metabolites” value (MM.1S cells [2]; MM.1S cells, 5, 15, 60 min) was “hydrolysis of Example compound 1 took place inside the cells” and the “Cells with DNA breaks (TUNEL positive cells)” value (MM.1S cells [3]) was greater than 90%. The “Dose response effect on DNA damage (TUNEL)” value (MM.1S cells [3]) was “induced DNA damage in a dose-dependent manner”.
